Assay results from ChEMBL document CHEMBL3507680, “University of Dundee, Gates Library screen for HepG2 cell viability”.

experiment: Human HepG2 cell viability assay in 384 well format; format: toxicity, cell-based; parameters: dose 125 nL, time 70.5 hour; concentration not given beside the values; conditions: HepG2 cells, read-out: Inhibition

| SMILES | cytotoxicity at 70.5 h |
| --- | --- |
| CN(C)C(=O)CN1CCCCC1c1nc(N)ncc1-c1ccc(Cl)cc1 (centres undefined) | -15.8% |
| COC(=O)c1cccc(C2CNCCN2C(C)=O)c1 (centres undefined) | 21.6% |
| CS(=O)(=O)NC1CCN(C(=O)NCC2CCCO2)CC1 (centres undefined) | -10.3% |
| CN1CCN(C(=O)Cc2ccsc2)Cc2cccnc21 | -1.77% |
| Nc1cc(C(=O)N2CCCC(C(=O)CCc3ccccc3)C2)ccn1 (centres undefined) | -3.17% |
| CCCC(=O)N1Cc2ccccc2CC2(CCN(C)C2)C1 (centres undefined) | 22.5% |
| Cc1cccc(NCC(=O)Nc2cc(F)ccc2F)c1C(N)=O | -8.06% |
| COC(=O)Cc1cccc(NC(=O)Cc2cc(C)[nH]n2)c1 | 21.3% |
| CNc1oc(-c2ccc(OC)c(S(=O)(=O)N3CCCCC3)c2)nc1C#N | -18% |
| CC(C)NC(=O)Nc1cccc2c1CCN(S(C)(=O)=O)C2 | -1.67% |
| O=C(CN1CCCC(Cn2cncn2)C1)NCCOc1ccccc1 (centres undefined) | -2.13% |
| O=C(C1CCC1)N1CCOc2cccc(F)c21 | -9.1% |
| CCC(=O)N1CCN(C(=O)Nc2cccc(C#N)c2)[C@H]2CS(=O)(=O)C[C@H]21 | -15.6% |
| Cc1ccc(OCCN(C)Cc2cscn2)cc1 | -2.46% |
| CS(=O)(=O)c1cccc(Cl)c1C(=O)NCCN1C(=O)CCC1=O | 16.3% |
| O=C1COc2cc(C(=O)NS(=O)(=O)c3ccc(F)c(F)c3)ccc2N1 | 10.9% |
| COc1cc(CNC2CCCN(c3cccnn3)C2)cc2c1OCO2 (centres undefined) | -3.66% |
| CCCC(=O)N(Cc1ccncc1)C(C)CC (centres undefined) | -6.83% |
| CC(C)(C)c1ncc2c(n1)CN(C(=O)c1ccc(-n3cnnn3)cc1)C2 | -3.62% |
| CN(C)C(=O)CO[C@H]1CO[C@@]2(CCN(S(C)(=O)=O)C2)C1 | -6.98% |
| O=C(NCCc1ccc(Cl)cc1)c1coc(CN2CCOCC2)c1 | -5.77% |
| CC(NC(=O)N(C)Cc1ccsc1)c1nncn1C (centres undefined) | -2.73% |
| Cc1cccc(N2CCCN=C2NC(=O)c2cccc(Cl)c2)c1 | -9.98% |

| SMILES | cytotoxicity at 70.5 h |
| --- | --- |
| COc1ccccc1-c1ncc(CN2CCCC[C@H](N(C)C)C2)s1 | 4.63% |
| CC1CCN(CCCNC(=O)Nc2cc3c(cc2Br)OCCO3)CC1 | -0.325% |
| CCNc1ncc2c(n1)CN(c1ccc(CC)cc1)C2=O | -8.79% |
| c1ccc(CN2CCC(NCCc3ccc4c(c3)CCO4)CC2)nc1 | 0.552% |
| COc1cc(CNC(=O)CNc2cc(Cl)ccc2OC)ccn1 | 3.6% |
| CCn1cnnc1C1CCN(C(=O)c2cc3c(s2)CCCC3)CC1 | -9.56% |
| O=C(c1cccnc1O)N1CCOC(c2ccc(Cl)cc2)C1 (centres undefined) | -0.483% |
| Cc1nn(C)c(C)c1CN(C)C(=O)c1cc(C(F)(F)F)n(C)n1 | -5.06% |
| O=C(c1ccccn1)C1CCCN(c2nccc(CCC(F)(F)F)n2)C1 (centres undefined) | -13.1% |
| O=C(NCCCn1cccn1)N1CCCC1c1ccncc1 (centres undefined) | 6.98% |
| COCc1noc(C2(c3ccc(OC)cc3)CCOCC2)n1 | -9.29% |
| COCCCN1CC2(CCCCN2C(C)=O)CC1=O (centres undefined) | -7.86% |
| O=C(NCCc1nncn1C1CC1)c1cnn(Cc2ccccc2)c1 | -11.1% |
| O=c1c2sccc2nc2n1CCN(Cc1ccccc1C(F)(F)F)CC2 | -10.4% |
| CCc1nccn1C1CCCN(C(=O)c2cnn3ccc(C)nc23)C1 (centres undefined) | -9.27% |
| Cc1cc(C(=O)N2CCn3cc(CN4CCCCC4)nc3C2)no1 | -9.93% |
| CSc1nccc(N2CCN(C)C3(CCC(=O)N(CC4CC4)CC3)C2)n1 (centres undefined) | 1.61% |
| O=C(COCC(F)(F)F)NC1CCCc2cc(OC(F)F)ccc21 (centres undefined) | -6.74% |
| O=C1CO[C@@H]2CN(Cc3cccnc3)C[C@H]2N1Cc1ccncc1 | -6.09% |
| CCN(Cc1cnn(C)c1)C[C@H]1CC[C@@H](Cc2cccc(C#N)c2)O1 | -5.55% |
| Cc1cc(C)n(C2CCCN(C(=O)c3ccc4c(c3)COC4)C2)n1 (centres undefined) | 1.09% |
| O=c1[nH]c(CCN2CCCC(Cn3cncn3)C2)nc2ccccc12 (centres undefined) | -0.545% |
| NCc1cnn(-c2ccccc2C(=O)NCCCn2ccnc2)c1 | -6.34% |

| SMILES | cytotoxicity at 70.5 h |
| --- | --- |
| Cc1ncsc1C(=O)N1CCCN(Cc2cscn2)CC1 | -12.1% |
| CCn1nc2c(cc1=O)CN(CCOc1cccc(C#N)c1)CC2 | -3.93% |
| Cc1nc(CN(C)CC2CCCN2c2cccnn2)oc1C (centres undefined) | -1.57% |
| CC(c1nc(C2CC2)no1)N1CCC(NS(=O)(=O)c2cccs2)CC1 (centres undefined) | -13.4% |
| CCS(=O)(=O)N1CCC(c2cc3n(n2)[C@@H](C(F)(F)F)C[C@@H](C)N3)CC1 | -17.1% |
| CCCn1[nH]cc/c1=N\C(=O)CN1CCCC1Cn1cc(C)cn1 (centres undefined) | -4.99% |
| Cc1nc(N)nc(C)c1Cc1nc(C2CC2)n[nH]1 | -0.863% |
| OCC1(O)CCN(Cc2ccc(-c3cc[nH]n3)s2)CC1 | 6.86% |
| Clc1ccccc1C1CN(CCc2ccncc2)CCO1 (centres undefined) | -6.68% |
| COc1ccccc1C(=O)N1CC2(COC(C)(C)OC2)C1 | -0.0905% |
| CC(C)c1nc(CN2CCCC(Cn3cncn3)C2)cs1 (centres undefined) | 29.1% |
| CCC(=O)N1CCCC(C(=O)NCc2noc(Cc3ccccc3)n2)C1 (centres undefined) | -12.1% |
| Cc1nc(NC(=O)C(C)N(C)Cc2cccc(C#N)c2)sc1C (centres undefined) | 15.8% |
| Cc1ccc(-c2nc(CN3CC(n4nc(C)cc4C)C3)no2)cc1 | -8.79% |
| CN(C1CCN(c2ccccn2)CC1)S(=O)(=O)c1ccc(F)cc1 | -6.89% |
| Cc1nc(O)cc(CCNC(=O)C2CC(=O)N(CC(C)C)C2)n1 (centres undefined) | -8.39% |
| Cc1cnn(CCC(=O)N2CCCC(c3ccn[nH]3)C2)c1 (centres undefined) | -1.8% |
| Cc1[nH]c2c(C)ccc(C)c2c1CC(=O)NC1CCCNC1=O (centres undefined) | -5.85% |
| O=C(c1cc(Cl)c[nH]1)N1CCN(CCc2ccccn2)CC1 | -16% |
| COc1ccc(OC2CCN(c3ccncc3)CC2)cc1 | -3.12% |
| COc1cccc2c1OCC(C(=O)NCCn1nc(C)c(Cl)c1C)C2 (centres undefined) | -5.88% |
| Cc1cccnc1CCNC(=O)CC1C(=O)NCCN1CCC(C)C (centres undefined) | 19.9% |
| COc1cc(Cl)ccc1C(=O)N1CCCC(n2nc(C)nc2C)C1 (centres undefined) | -0.226% |

| SMILES | cytotoxicity at 70.5 h |
| --- | --- |
| Cc1cccnc1C(=O)N1C[C@@H]2CC[C@H](Oc3cccc(F)c3)[C@@H]2C1 | -8.25% |
| CCN(Cc1ccncc1)CC1(O)CCN(C(=O)c2cnn(C)c2)C1 (centres undefined) | -4.91% |
| CC(C)Cn1ncc2cc(C(=O)N(C)Cc3cccc(O)c3)cnc21 | 11.7% |
| Cc1ccccc1N1CCN(C2CCCN(C(=O)CCC(C)C)C2)CC1 (centres undefined) | -0.359% |
| CC(C)S(=O)(=O)Cc1cccc(NC(=O)c2ccc[nH]2)c1 | -11% |
| COc1ccc(S(=O)(=O)N2CCCC3(CCCN3S(C)(=O)=O)C2)cc1 (centres undefined) | 8.26% |
| CC(NC(=O)N1CCN(c2cccs2)CC1)c1ccncc1 (centres undefined) | -3.43% |
| CC(C)c1noc(CS(=O)(=O)CC(=O)NCc2cccs2)n1 | -9.72% |
| CCC(=O)Nc1ncn(Cc2cccnc2)n1 | 15.8% |
| Cc1nnc(CSc2ccccn2)o1 | -13.6% |
| Cc1nc(C)n(CC2CCCN2Cc2nc3ccccc3c(=O)[nH]2)n1 (centres undefined) | -1.61% |
| CN(C)C(=O)CN1CCC2(CCN(CC3CC3)CC2)C1=O | 9.87% |
| O=C(NCc1cc[nH]n1)NCC(O)c1ccccc1F (centres undefined) | 0.0915% |
| Cc1nsc(N2CCCN(C(=O)NCc3cccnc3)CC2)n1 | -0.506% |
| CC(=O)N1CCCN(C(=O)Nc2ccccc2N2CCOC2=O)CC1 | -4.99% |
| CCCN(CCC)C(=O)CN(C)C1CCc2ccccc21 (centres undefined) | -7.56% |
| Cc1nc(O)ccc1C(=O)N1CCCC1c1nc(-c2ccccc2)n[nH]1 (centres undefined) | 0.447% |
| Cc1ccc(N2CCCN(CC3CC3)C(C(C)C)C2)nn1 (centres undefined) | -14.3% |
| Cc1nc2c(c(N3CCC4(CCCNC4=O)C3)n1)CCC2 (centres undefined) | -4.16% |
| CCCc1nnc([C@H]2CCN(Cc3ncc[nH]3)C2)o1 | -1.6% |
| Cc1ccccc1CSc1nc(N)cc(N2CCOCC(CO)C2)n1 (centres undefined) | 6.16% |
| CCn1cc(CN2CCC(C3CCN(C)CC3)CC2)cc1C#N | -1.33% |
| COC(=O)c1ccc2c(c1)CCCN2S(=O)(=O)c1cn(C)c(C)n1 | 1.33% |

| SMILES | cytotoxicity at 70.5 h |
| --- | --- |
| COC(=O)c1oc(CNC(C)(C)c2ccc3c(c2)OCO3)cc1C | 19.5% |
| Cc1c[nH]nc1C1CCCN1Cc1nccn1C (centres undefined) | -4.65% |
| CN(C)c1ncnc2c1CCN(c1ccccc1)CC2 | 13.6% |
| Cc1nc(NC2CCCC2)c2c(n1)c(C)nn2C | -14.9% |
| CNC(=O)CN1CCC2(CCCN(CC3CCOC3)C2)CC1 (centres undefined) | -6.27% |
| Cn1cc(C[C@H]2[C@@H](O)CCN2C(=O)C2CC=CC2)cn1 | 7.47% |
| Cc1ccc2c(c1)C(NCc1nccn1Cc1ccccc1)CCCO2 (centres undefined) | -13.4% |
| CCC(OC)C(=O)NCc1cc2n(n1)CCCN(C1CCCCC1)C2 (centres undefined) | -9.86% |
| Cc1nn(C)c(Cl)c1C1CCCN1C(=O)c1ccc(O)nc1 (centres undefined) | 23.1% |
| COCCOc1ccc(NC(=O)N2CCOC(C(N)=O)C2)cc1F (centres undefined) | 25.8% |
| Cc1cc(N)nc(SC2CCN(c3ccccc3)C2=O)n1 (centres undefined) | -2.2% |
| COCCN1C[C@H](OCc2csc(C)n2)[C@H]2COC[C@H]21 | -9.78% |
| O=C(c1ccccc1F)N(CCCO)S(=O)(=O)c1cccs1 | -9.23% |
| O=C(C1CC12CCC2)N1CCC(n2cc(-c3ccsc3)nn2)CC1 (centres undefined) | -9.29% |
| CN1CCC2(C=C(C(=O)N(C)C)c3ccccc32)CC1 | 2.91% |
| c1cnc2[nH]c(C3CCCC3)c(CN3CCOCC3)c2c1 | -9.59% |
| CC(C)n1ccc(-c2cc(C(=O)NC3CC3)c3ccccn23)n1 | 21.3% |
| CN(Cc1ccc(C#N)cc1)CC1CCS(=O)(=O)C1 (centres undefined) | -8.96% |
| c1csc(-c2nc(CN3CCCCC3Cn3cccn3)co2)c1 (centres undefined) | -58% |
| Cc1ccc(NC2CCN(C(=O)c3c(C)nn(C)c3Cl)CC2)nn1 | -2.32% |
| COCCN1CC[C@]2(CN(C(=O)c3ccc[nH]3)C[C@H]2C)C1=O | -7.41% |
| Cc1cc(C2CCCN2Cc2ccc(C(=O)Nc3nccs3)cc2)on1 (centres undefined) | -2.76% |
